T1: RARα (Homo sapiens, UniProt P10276)
T1 sequence (P10276 1-462): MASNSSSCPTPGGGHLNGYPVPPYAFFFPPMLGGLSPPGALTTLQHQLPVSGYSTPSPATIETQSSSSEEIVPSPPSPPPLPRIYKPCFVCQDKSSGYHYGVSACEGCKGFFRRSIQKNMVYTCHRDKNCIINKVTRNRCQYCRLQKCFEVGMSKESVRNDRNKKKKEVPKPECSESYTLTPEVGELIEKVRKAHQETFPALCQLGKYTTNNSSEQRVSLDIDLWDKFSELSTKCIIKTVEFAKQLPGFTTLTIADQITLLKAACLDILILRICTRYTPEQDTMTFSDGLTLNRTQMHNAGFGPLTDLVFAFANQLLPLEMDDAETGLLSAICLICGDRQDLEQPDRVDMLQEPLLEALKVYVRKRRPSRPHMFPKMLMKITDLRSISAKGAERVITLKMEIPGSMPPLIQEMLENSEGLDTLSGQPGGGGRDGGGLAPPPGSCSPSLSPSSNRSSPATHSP

T2: RAR (Homo sapiens, UniProt P10276)
T2 construct: expressed in transfected cells; host or cells: CV-1 (monkey kidney)
T2 sequence (P10276 1-462): T1 sequence (P10276 1-462)

T3: TRβ (Homo sapiens, UniProt P10828)
T3 sequence (P10828 1-461): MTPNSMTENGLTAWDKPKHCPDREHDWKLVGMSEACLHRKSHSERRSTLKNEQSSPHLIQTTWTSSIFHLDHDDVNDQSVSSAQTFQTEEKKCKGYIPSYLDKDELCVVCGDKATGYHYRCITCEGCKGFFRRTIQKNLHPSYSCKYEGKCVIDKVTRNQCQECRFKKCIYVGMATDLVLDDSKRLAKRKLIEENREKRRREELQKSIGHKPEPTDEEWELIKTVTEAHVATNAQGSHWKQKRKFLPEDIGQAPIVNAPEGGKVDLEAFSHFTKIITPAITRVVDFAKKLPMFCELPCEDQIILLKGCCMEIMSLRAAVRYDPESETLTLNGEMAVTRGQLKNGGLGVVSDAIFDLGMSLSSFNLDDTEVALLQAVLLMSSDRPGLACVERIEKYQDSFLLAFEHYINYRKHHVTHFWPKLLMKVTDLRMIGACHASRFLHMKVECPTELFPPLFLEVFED

T4: Retinoic acid receptor alpha (RARα), in CV-1 cells (Homo sapiens, UniProt P10276 P10276:1-462)
T4 sequence: T1 sequence (P10276 1-462)

B1: DR-5 (dsDNA)
DNA 1: AGCTTCAGGTCACCAGGAGGTCAGAGAGCT
DNA 2: AGCTCTCTGACCTCCTGGTGACCTGAAGCT

Assays:
[1] = biological target: T1, RARα; experiment: Gel retardation DNA-binding assay with RARα-expressing COS cell extracts; design: expressed in transfected cells; host or cells: COS cells (whole-cell extract)
Procedure: For DNA binding assays, COS cells were cultured in DMEM with 10% calf bovine serum and transfected by the calcium phosphate method with 20 μg of the pCMX receptor expression plasmid for 6 hours followed by a glycerol shock. After incubating the transfected COS cells for another 48 hours, the cells were harvested to prepare extracts for the DNA binding assay, carried out as described by Damm et al., Nature 339: 593-597 (1989). The extracts were made in 20 mM HEPES (pH 7.4), 0.4 M KCl, 2 mM DTT and 20% glycerol. A similar method was employed to prepare a whole cell extract from F9 stem cells. For the binding, 5 μg (COS) or 10 μg (F9) of proteins was incubated on ice for 20 minutes, first in 20 mM HEPES, 80 mM KCl, 1 mM DTT, 0.1% NP40, 2.5 μg of poly dI/dC, and 10% glycerol (cold competitor oligonucleotides, when included, were added during this pre-incubation period). Then 40 fmole of ^32P-labeled oligonucleotide probe (1-2×10^5 cpm, prepared by filling-in reaction using Klenow polymerase in the presence of α-^32P-dCTP) was added to the reaction mixture, followed by incubation at room temperature for 30 minutes. The receptor-DNA complexes were resolved by electrophoresis through 5% polyacrylamide gel containing 5% glycerol at 6 V/cm at room temperature.
Oligonucleotides listed in FIG. 3 were used as a probe to test specific DNA-binding of the RARα and TRβ in a gel retardation assay. On the βRARE, a faint background binding activity was detected in the mock transfected COS cell extract. […] In each case the result obtained from in vivo transactivation and in vitro DNA binding are consistent.
Using the mobility shift assay, the DNA-binding capacity of extracts from COS cells expressing TRβ and RARα to these sequences was also tested. […] This pattern is consistent with that of the in vivo activation (FIG. 4). A reciprocal pattern was obtained when the same oligonucleotides were used to compete RARα binding to the ^32P-labeled βRARE. […] This provides a striking example of the role of half-site spacing in generating a functional response element.

[2] = biological target: T2, RAR; experiment: Delta-MTV constructs, RA induction in CV-1 cells with cotransfected RAR expression vector; type: cell-based; settings: Delta-MTV-CAT constructs; CV-1 cells
Procedure: Inspection of the sequences of βRE1, βRE2, and βRE3 (see FIG. 2b) identifies a tandem repeat of the 6 bp motif. The center to center separation of 11 bp between these repeats is one turn of the DNA helix. […] Apparently, a single half site element of the RARβ gene would reciprocally be responsive to the TR, ER, and/or other members of the receptor superfamily.
(§1) Cells were transfected in 10 cm dishes with 10 μg of DNA containing 5 μg of reporter plasmid, 1-2 μg of either RSV-LUC (a), or RSV-βGAL or pCH110 (c and d), pGEM4 as carrier DNA, and for the experiments shown in a and d, 1 μg of RSV-RAR expression vector or the same amount of an RSV vector generating a nonsense transcript. Cells were harvested 1 day after addition of retinoic acid. All CAT assays represent equivalent amounts of β-galactosidase activity; β-GAL assays were normalized to luciferase activity.

[3] = test system: endogenous RA receptor; experiment: Delta-MTV-CAT constructs, RA induction in CV-1 cells without cotransfected RAR expression vector; type: cell-based, monkey
Procedure: as §1

[4] = biological target: T3, TRβ; experiment: Gel retardation DNA-binding assay with TRβ-expressing COS cell extracts; design: expressed in transfected cells; host or cells: COS cells (whole-cell extract)
Summary of the method: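 Extracts of COS cells transfected with pCMX TRβ expression plasmid, 48 h post-transfection; 5 μg protein pre-incubated on ice 20 min with poly dI/dC, then 40 fmole 32P-labelled oligonucleotide 30 min at room temperature. Complexes resolved on 5% polyacrylamide gel.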

[5] = test system: endogenous RA receptor; experiment: Survey of cell lines for RA-dependent transactivation of the βRARE without transfected RAR; type: cell-based; settings: CV-1, F9, P19, CHO, HeLa, NIH 3T3, Rat2 fibroblasts, HT1080.T, chick embryo fibroblasts, quail QT6 cells
[6] = biological target: T4, Retinoic acid receptor alpha (RARα), in …; experiment: cell_activity; RA 1 µM, CV-1; settings: tags: RSV or pRS expression vector; label: 32P; 5'-agct overhangs
Procedure: For cotransfection assays, a monkey kidney cell line CV-1 was kept in Dulbecco's modified Eagle's medium (DMEM) supplemented with 10% charcoal-resin double split calf bovine serum. Transfections were performed via calcium-phosphate precipitation method as described by Umesono, et al. in Cell 57: 1139–1146 (1989), with 0.5 μg of a pRS receptor expression plasmid, 1.0 μg of a reporter CAT plasmid, 5 μg of pRAS-βGAL [Umesono, et al., Cell 57: 1139–1146 (1989)] as an internal control, and 8.5 μg of carrier plasmid pUC19. The cells were transfected for 8 hours; after washing the DNA precipitates, the cells were then incubated for an additional 36 hours with or without the ligand (T_3, 100 nM; RA, 1 μM; 1,25-(OH)_2 vitamin D_3, 100 nM). Cell extracts were prepared for βGAL and CAT assays, as described by Umesono, et al., supra. Transfection of F9 teratocarcinoma cells was carried out employing a similar method except the cells were incubated for 12 hours in the presence of the DNA precipitates, and the RA was added at 1 μM for another 24 hours before harvesting the cells. 2, 5, and 4 μg of the reporter, pRAS-βGAL, and pUC19 were used, respectively.
The above strategies were used to test both in vivo transactivation and in vitro DNA-binding of these artificial HREs for TRβ, RARα, and VDR. […]

| Molecule | RARα binding to labeled oligonucleotide probe ([1]; gel retardation, RARα COS cell extract) | competition for RARα binding to 32P-labeled βRARE ([1]; unlabeled competitor oligonucleotide, COS cell extracts) | increase of induction by cotransfection of RAR-alpha expression vector [2] | RA-dependent induction in the absence of cotransfected RAR expression vector [3] | TRβ binding to labeled oligonucleotide probe ([4]; gel retardation, TRβ COS cell extract) | competition for TRβ binding (mobility shift assay) ([4]; unlabeled competitor oligonucleotide, COS cells expressing TRβ) | RA-dependent transactivation in the absence of transfected RAR expression vector [5] | activity [6] [fold induction] |
| --- | --- | --- | --- | --- | --- | --- | --- | --- |
| 5′-AAGCTTAAG-GGTTCA-CCGAA-AGTTCA-CTCGCATAGCTT-3′ (SEQ ID NO:6) (AAGCTTAAGGGTTCACCGAAAGTTCACTCGCATAGCTT; DNA, backbone not given here) [βRE2, oligonucleotide including the β retinoic acid response element; βRARE corresponds to βRE2] | dramatically enhanced | effective competitors | two-fold | robust RA-dependent induction | weak, yet detectable binding activity | poor competitors | efficiently transactivate | – |
| B1 | – | – | – | – | – | – | – | 9 |

From US6492137B1, “Response element compositions and assays employing same” (The Salk Institute for Biological Studies, priority 1989, dated 2002)
